Laboratory results: US20140221283A1 (Indiana University Research and Technology Corporation, priority 2011, published 2014)
pEC50: −log10 of the molar value. *1 amine or outer side, *2 acyl side, *3 side chain or, on linkers, in order; H or OH if unused. Where a SMILES comes first, the peptide text is derived from it. Where no end group is shown, it is not given here. Side-chain parts run from the residue outwards. [ ]: non-standard residue; d: D form. The star is where a group is joined. γGlu = O=C(O)[C@H](CCC(=O)[*:2])N[*:1]; Palmitoyl = CCCCCCCCCCCCCCCC(=O)*; Aib = CC(C)(N)C(=O)O

Legend:
[1] = body weight of diet-induced obese (DIO) mice dosed daily for nine days (Example 7); format: in vivo; conditions: Day 9; for body weight reduction: 3 nmol/kg daily; for body weight loss: 9 nmol/kg daily
Procedure: (§1) Mice were administered a vehicle control or a dose of a peptide daily for nine days. The peptides tested in this study included a peptide of SEQ ID NO: 12, a peptide of SEQ ID NO: 17, a peptide of SEQ ID NO: 18, and a peptide of SEQ ID NO: 19. Doses of each peptide were varied—each of the peptides of SEQ ID NO: 12, 17, and 19 was administered at a dose of either 3 nmol/kg or 9 nmol/kg, while the peptide of SEQ ID NO: 18 was administered at a dose of 1 nmol/kg, 3 nmol/kg, or 9 nmol/kg. Data are expressed as mean±SEM.

[2] = ambient glucose levels of DIO mice dosed daily for nine days (Example 7); format: in vivo; conditions: for decrease in ambient glucose vs. vehicle: by Day 4
Procedure: as §1
In addition to cumulative body weight change, ambient glucose levels of the DIO mice were measured.

[3] = target: T1, glucagon receptor (Homo sapiens, UniProt P47871); assay: firefly luciferase-based cAMP reporter assay, HEK293 cells co-transfected with glucagon receptor (Example 3); format: cell-based; conditions: procedure of Example 3
T1 construct: expressed in transfected cells; host or cells: HEK293
Procedure: (§2) The ability of each peptide to induce cAMP was measured in a firefly luciferase-based reporter assay.
(§3) At the end of the incubation, 100 μL of LucLite luminescence substrate reagent (Perkin Elmer, Wellesley, Mass.) were added to each well.

[4] = target: T2, GIP receptor (Homo sapiens, UniProt P48546); assay: firefly luciferase-based cAMP reporter assay, HEK293 cells, GIP receptor (Example 3); format: cell-based; conditions: procedure of Example 3
T2 construct: expressed in transfected cells; host or cells: HEK293
T2 sequence (P48546 22-466): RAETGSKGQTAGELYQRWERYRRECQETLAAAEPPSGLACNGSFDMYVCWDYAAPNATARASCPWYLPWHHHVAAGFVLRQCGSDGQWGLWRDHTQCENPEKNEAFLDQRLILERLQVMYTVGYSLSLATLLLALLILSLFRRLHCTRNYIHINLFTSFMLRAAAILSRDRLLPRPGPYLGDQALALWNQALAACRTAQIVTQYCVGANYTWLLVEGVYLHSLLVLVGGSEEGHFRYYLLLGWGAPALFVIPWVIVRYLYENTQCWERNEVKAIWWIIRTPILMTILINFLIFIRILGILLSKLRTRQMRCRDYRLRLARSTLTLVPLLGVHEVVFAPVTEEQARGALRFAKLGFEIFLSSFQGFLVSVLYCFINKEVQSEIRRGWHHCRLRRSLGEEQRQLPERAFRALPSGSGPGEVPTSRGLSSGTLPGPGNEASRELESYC
Procedure: It is understood that a lower EC50 indicates higher activity or potency at the receptor.
as §2, §3
In some instances, the in vitro agonist activity at the GIP receptor was also tested.

[5] = target: human GLP-1R (Homo sapiens, UniProt P43220); assay: firefly luciferase-based cAMP reporter assay, HEK293 cells co-transfected with GLP-1 receptor (Example 3); format: cell-based; parameters: expressed in transfected cells; host or cells: HEK293; conditions: procedure of Example 3
Procedure: as §2, §3

T1 sequence (P47871 26-477): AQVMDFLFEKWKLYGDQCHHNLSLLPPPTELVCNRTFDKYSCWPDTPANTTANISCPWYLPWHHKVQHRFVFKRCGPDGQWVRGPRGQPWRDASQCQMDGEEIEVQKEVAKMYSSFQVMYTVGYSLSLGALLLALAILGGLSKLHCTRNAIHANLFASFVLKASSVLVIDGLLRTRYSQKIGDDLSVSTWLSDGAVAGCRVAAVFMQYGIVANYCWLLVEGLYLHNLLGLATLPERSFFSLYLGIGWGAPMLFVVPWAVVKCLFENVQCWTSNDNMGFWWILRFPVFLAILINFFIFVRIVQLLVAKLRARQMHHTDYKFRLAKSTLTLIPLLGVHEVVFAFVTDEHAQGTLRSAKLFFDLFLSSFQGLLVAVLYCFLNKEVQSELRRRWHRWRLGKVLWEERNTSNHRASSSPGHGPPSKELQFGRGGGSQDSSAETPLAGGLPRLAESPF
human GLP-1R, sequence (P43220 24-463): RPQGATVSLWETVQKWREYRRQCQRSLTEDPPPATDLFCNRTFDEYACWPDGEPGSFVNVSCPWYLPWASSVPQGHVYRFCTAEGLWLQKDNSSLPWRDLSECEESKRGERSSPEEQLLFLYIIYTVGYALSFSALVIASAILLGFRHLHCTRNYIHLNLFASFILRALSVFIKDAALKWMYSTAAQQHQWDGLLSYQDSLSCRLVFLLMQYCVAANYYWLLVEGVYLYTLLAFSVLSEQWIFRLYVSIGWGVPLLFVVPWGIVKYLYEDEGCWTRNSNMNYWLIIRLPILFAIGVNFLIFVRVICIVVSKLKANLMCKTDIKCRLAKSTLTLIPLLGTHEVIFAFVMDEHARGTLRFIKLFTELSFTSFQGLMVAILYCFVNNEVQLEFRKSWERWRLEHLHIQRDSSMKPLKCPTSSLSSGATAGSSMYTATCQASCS

| Compound | body weight reduction [1] [%] | body weight loss [1] [%] | decrease in ambient glucose vs. vehicle ([2]; 3 nmol/kg daily) [%] | decrease in ambient glucose vs. vehicle ([2]; 9 nmol/kg daily) [%] | pEC50 [3] | EC50 [4] [nM] | pEC50 [5] | decrease in glucose levels compared to vehicle control mice ([2]; 9 nmol/kg daily, Day 4) [%] | decrease in glucose levels compared to vehicle control mice ([2]; 9 nmol/kg daily, Day 7) [%] | decrease in glucose levels compared to vehicle control mice ([2]; 9 nmol/kg daily, Day 9) [%] |
| --- | --- | --- | --- | --- | --- | --- | --- | --- | --- | --- |
| SEQ ID NO: 18: peptide of SEQ ID NO: 18 tested in DIO mice; sequence only in the sequence listing (HXQGTFTSDKSKYLDERAAQDFVQWLMDT; not fully specified; Xaa is AIB; Acylated with a C16 fatty acyl group via gamma- Glu-gamma-Glu spacer; C-terminal amidation) | ~12.3 | ~26.8 | −29 | −29 | – | – | – | – | – | – |
| CCCCCCCCCCCCCCCC(=O)N[C@@H](CCC(=O)N[C@@H](CCC(=O)NCCCC[C@H](NC(=O)[C@H](CC(=O)O)NC(=O)[C@H](CO)NC(=O)[C@@H](NC(=O)[C@H](Cc1ccccc1)NC(=O)[C@@H](NC(=O)CNC(=O)[C@H](CCC(N)=O)NC(=O)C(C)(C)NC(=O)[C@@H](N)Cc1c[nH]cn1)[C@@H](C)O)[C@@H](C)O)C(=O)N[C@@H](CO)C(=O)N[C@@H](CCCCN)C(=O)N[C@@H](Cc1ccc(O)cc1)C(=O)N[C@@H](CC(C)C)C(=O)N[C@@H](CC(=O)O)C(=O)NC(C)(C)C(=O)N[C@@H](CCCNC(=N)N)C(=O)N[C@@H](C)C(=O)N[C@@H](C)C(=O)N[C@@H](CCC(N)=O)C(=O)N[C@@H](CC(=O)O)C(=O)N[C@@H](Cc1ccccc1)C(=O)N[C@H](C(=O)N[C@@H](CCC(N)=O)C(=O)N[C@@H](Cc1c[nH]c2ccccc12)C(=O)N[C@@H](CC(C)C)C(=O)N[C@@H](CC(C)C)C(=O)N[C@@H](CC(=O)O)C(=O)N[C@H](C(=O)N[C@@H](CCCCN)C(=O)N[C@@H](CCC(N)=O)C(=O)O)[C@@H](C)O)C(C)C)C(=O)O)C(=O)O [SEQ ID NO: 16] (H-H[Aib]QGTFTSDK([γGlu-γGlu-Palmitoyl])SKYLD[Aib]RAAQDFVQWLLDTKQ-OH; N-terminus assumed) | – | – | – | – | 10.82 | 1.04 | 10.72 | – | – | – |
| CCCCCCCCCCCCCCCC(=O)N[C@@H](CCC(=O)N[C@@H](CCC(=O)NCCCC[C@H](NC(=O)[C@H](CC(=O)O)NC(=O)[C@H](CO)NC(=O)[C@@H](NC(=O)[C@H](Cc1ccccc1)NC(=O)[C@@H](NC(=O)CNC(=O)[C@H](CCC(N)=O)NC(=O)C(C)(C)NC(=O)[C@@H](N)Cc1c[nH]cn1)[C@@H](C)O)[C@@H](C)O)C(=O)N[C@@H](CO)C(=O)N[C@@H](CCCCN)C(=O)N[C@@H](Cc1ccc(O)cc1)C(=O)N[C@@H](CC(C)C)C(=O)N[C@@H](CC(=O)O)C(=O)NC(C)(C)C(=O)N[C@@H](CCCNC(=N)N)C(=O)N[C@@H](C)C(=O)N[C@@H](C)C(=O)N[C@@H](CCC(N)=O)C(=O)N[C@@H](CC(=O)O)C(=O)N[C@@H](Cc1ccccc1)C(=O)N[C@H](C(=O)N[C@@H](CCC(N)=O)C(=O)N[C@@H](Cc1c[nH]c2ccccc12)C(=O)N[C@@H](CC(C)C)C(=O)N[C@@H](CCSC)C(=O)N[C@@H](CC(=O)O)C(=O)N[C@H](C(=O)N[C@@H](CCCCN)C(=O)N[C@@H](CCC(N)=O)C(=O)O)[C@@H](C)O)C(C)C)C(=O)O)C(=O)O [SEQ ID NO: 12] (H-H[Aib]QGTFTSDK([γGlu-γGlu-Palmitoyl])SKYLD[Aib]RAAQDFVQWLMDTKQ-OH; N-terminus assumed) | ~5.3 | ~29.8 | – | – | 11.00 | 12.8 | 11.52 | – | – | – |
| SEQ ID NO: 19: peptide of SEQ ID NO: 19 tested in DIO mice; sequence only in the sequence listing (H[dS]QGTFTSDK([γGlu-Palmitoyl])SKYLDERAAQDFVQWLLDT-NH2; N-terminus assumed; SMILES CCCCCCCCCCCCCCCC(=O)N[C@@H](CCC(=O)NCCCC[C@H](NC(=O)[C@H](CC(=O)O)NC(=O)[C@H](CO)NC(=O)[C@@H](NC(=O)[C@H](Cc1ccccc1)NC(=O)[C@@H](NC(=O)CNC(=O)[C@H](CCC(N)=O)NC(=O)[C@@H](CO)NC(=O)[C@@H](N)Cc1c[nH]cn1)[C@@H](C)O)[C@@H](C)O)C(=O)N[C@@H](CO)C(=O)N[C@@H](CCCCN)C(=O)N[C@@H](Cc1ccc(O)cc1)C(=O)N[C@@H](CC(C)C)C(=O)N[C@@H](CC(=O)O)C(=O)N[C@@H](CCC(=O)O)C(=O)N[C@@H](CCCNC(=N)N)C(=O)N[C@@H](C)C(=O)N[C@@H](C)C(=O)N[C@@H](CCC(N)=O)C(=O)N[C@@H](CC(=O)O)C(=O)N[C@@H](Cc1ccccc1)C(=O)N[C@H](C(=O)N[C@@H](CCC(N)=O)C(=O)N[C@@H](Cc1c[nH]c2ccccc12)C(=O)N[C@@H](CC(C)C)C(=O)N[C@@H](CC(C)C)C(=O)N[C@@H](CC(=O)O)C(=O)N[C@H](C(N)=O)[C@@H](C)O)C(C)C)C(=O)O) | ~8.1 | ~31.5 | – | – | – | – | – | ~40 | ~39 | ~26 |
